Measurements published in patent US20020051795A1, “ASCORBIC ACID AS AN ADJUVANT IN THE REMOVAL OF VASCULAR OCCLUSIONS” (priority 1997, published 2002).

Tested on: patients at risk for a vascular occlusion
Experiment: ascorbic acid infusion as adjuvant to thrombolytic treatment (streptokinase or heparin) in patients, compared with patients receiving no ascorbic acid
Type: in vivo, humans
Details: 20 patients; infusion of 70 ml of a 15% ascorbic acid solution diluted with physiological saline, pH 6.0 to 7.0, over four hours, with streptokinase (1.0×106 units) or heparin 2.5 mg/kg; versus equal number of patients with no ascorbic acid infusion but otherwise the same therapy
Procedure: Treatment of a patient threatened by a vascular occlusion is administered, for example, by first giving the patient streptokinase (1.0×106 units) or heparin in a dose of 2.5 mg/kg […] in the form of an infusion over a period of 30 minutes. At the same time, the patient receives over a period of four hours an infusion of 70 ml of a 15% ascorbic acid solution diluted with physiological saline solution and adjusted to a pH of 6.0 to 7.0. The patient's condition is monitored continuously by an electrocardiogram. A group of 20 patients at risk for a vascular occlusion were treated by the procedure described above and compared with an equal number of patients receiving no ascorbic acid infusion during the operation but otherwise the same therapy.

## O=C1O[C@H]([C@@H](O)CO)C(O)=C1O [ascorbic acid]
  complications during the operation and during the subsequent two-week observation phase: significantly fewer complications
